Results from PubChem BioAssay AID328 (DTP/NCI, 2004).
Several values for one entry are separate records, joined by “and”; a condition that tells them apart may be missing. Equal entries are not always repeated. Inconclusive results and toxic doses are left out.

Test system: BDF1 mice, P388 leukemia ip, median survival T/C
Assay: NCI In Vivo Anticancer Drug Screen. Data for tumor model P388 Leukemia (intraperitoneal) in B6D2F1 (BDF1) mice
Details: endpoint: median survival time, higher = longer survival
How it was run: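 Vehicle-dosed animals serve as the reference; survival of compound-dosed, tumour-implanted mice is divided by it.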

[1] = dose: 25.0 mg/kg/injection, schedule: Q01DX009 (ip), vehicle: saline
[2] = dose: 50.0 mg/kg/injection, schedule: Q01DX009 (ip), vehicle: saline
[3] = dose: 100.0 mg/kg/injection, schedule: Q01DX009 (ip), vehicle: saline
[4] = dose: 100.0 mg/kg/injection, schedule: Q04DX003 (ip), vehicle: saline
[5] = dose: 200.0 mg/kg/injection, schedule: Q01DX009 (ip), vehicle: saline
[6] = dose: 200.0 mg/kg/injection, schedule: Q04DX003 (ip), vehicle: saline
[7] = dose: 100.0 mg/kg/injection, schedule: Q01DX009 (ip), vehicle: saline with Tween-80
[8] = dose: 200.0 mg/kg/injection, schedule: Q01DX009 (ip), vehicle: saline with Tween-80
[9] = dose: 12.5 mg/kg/injection, schedule: Q04DX003 (ip), vehicle: water
[10] = dose: 25.0 mg/kg/injection, schedule: Q04DX003 (ip), vehicle: water
[11] = dose: 50.0 mg/kg/injection, schedule: Q04DX003 (ip), vehicle: water
[12] = dose: 100.0 mg/kg/injection, schedule: Q04DX003 (ip), vehicle: water
[13] = dose: 50.0 mg/kg/injection, schedule: Q01DX009 (ip), vehicle: Klucel (hydroxypropylcellulose) (HPC)
[14] = dose: 100.0 mg/kg/injection, schedule: Q01DX009 (ip), vehicle: Klucel (hydroxypropylcellulose) (HPC)
[15] = dose: 200.0 mg/kg/injection, schedule: Q01DX009 (ip), vehicle: Klucel (hydroxypropylcellulose) (HPC)
[16] = dose: 50.0 mg/kg/injection, schedule: Q01DX009 (ip), vehicle: saline with Tween-80

COc1ccc2nc3cc(Cl)ccc3c(NC(C)CCCN(CCCl)CCCl)c2c1 (stereo unspecified)
T/C (dose: 0.17 mg/kg/injection, schedule: Q04DX003 (ip), vehicle: saline): 110 % of control | T/C (dose: 0.25 mg/kg/injection, schedule: Q01DX009 (ip), vehicle: saline): 154 % of control | T/C (dose: 0.4 mg/kg/injection, schedule: Q01DX009 (ip), vehicle: saline): 162 % of control | T/C (dose: 0.62 mg/kg/injection, schedule: Q01DX009 (ip), vehicle: saline): 159 % of control and 166 % of control | T/C (dose: 0.93 mg/kg/injection, schedule: Q01DX009 (ip), vehicle: saline): 87 % of control and 100 % of control | T/C (dose: 1.0 mg/kg/injection, schedule: Q01DX009 (ip), vehicle: saline): 118 % of control | T/C (dose: 4.0 mg/kg/injection, schedule: Q01DX009 (ip), vehicle: saline): 95 % of control | T/C (dose: 62.5 micrograms/kg/injection, schedule: Q01DX009 (ip), vehicle: saline): 95 % of control | T/C (dose: 125.0 micrograms/kg/injection, schedule: Q01DX009 (ip), vehicle: saline): 113 % of control | T/C (dose: 500.0 micrograms/kg/injection, schedule: Q01DX009 (ip), vehicle: saline): 168 % of control | T/C (dose: 1000.0 micrograms/kg/injection, schedule: Q01DX009 (ip), vehicle: saline): 150 % of control

C/C(=C/c1c(C)[nH]c(=O)[nH]c1=O)C(=O)O
T/C [1]: 89 % of control | T/C [2]: 89 % of control | T/C [3]: 96 % of control | T/C [4]: 101 % of control | T/C [5]: 105 % of control | T/C [6]: 91 % of control | T/C (dose: 400.0 mg/kg/injection, schedule: Q04DX003 (ip), vehicle: saline): 87 % of control

CCC(C)c1ccccc1OC(=O)Nc1ccc(OC)cc1 (stereo unspecified)
T/C (dose: 50.0 mg/kg/injection, schedule: Q04DX003 (ip), vehicle: Klucel (hydroxypropylcellulose) (HPC)): 95 % of control | T/C (dose: 100.0 mg/kg/injection, schedule: Q04DX003 (ip), vehicle: Klucel (hydroxypropylcellulose) (HPC)): 100 % of control | T/C (dose: 200.0 mg/kg/injection, schedule: Q04DX003 (ip), vehicle: Klucel (hydroxypropylcellulose) (HPC)): 100 % of control

CCCCCCCCCCC(O)CN1CCN(c2ccc(C)cc2)CC1 (stereo unspecified)
T/C [7]: 100 % of control | T/C (dose: 100.0 mg/kg/injection, schedule: Q04DX003 (ip), vehicle: saline sonified): 100 % of control | T/C (dose: 176.0 mg/kg/injection, schedule: Q04DX003 (ip), vehicle: saline with Tween-80): 90 % of control | T/C [8]: 100 % of control | T/C (dose: 200.0 mg/kg/injection, schedule: Q04DX003 (ip), vehicle: saline sonified): 115 % of control | T/C (dose: 264.0 mg/kg/injection, schedule: Q04DX003 (ip), vehicle: saline with Tween-80): 90 % of control | T/C (dose: 400.0 mg/kg/injection, schedule: Q01DX009 (ip), vehicle: saline with Tween-80): 90 % of control

CC(C)CCCC(C)C1CCC2C3C(=O)C=C4CC(O)CCC4(C)C3CCC12C (stereo unspecified)
T/C (dose: 100.0 mg/kg/injection, schedule: Q04DX003 (sc), vehicle: steriod suspending solution): 109 % of control | T/C (dose: 200.0 mg/kg/injection, schedule: Q04DX003 (sc), vehicle: steriod suspending solution): 104 % of control | T/C (dose: 400.0 mg/kg/injection, schedule: Q04DX003 (sc), vehicle: steriod suspending solution): 109 % of control

COc1cc2c(cc1OC)-c1c(C)c3ccc(OC)c(NCCN)c3c[n+]1CC2
T/C (dose: 3.12 mg/kg/injection, schedule: Q01DX005 (ip), vehicle: water): 100 % of control | T/C (dose: 3.13 mg/kg/injection, schedule: Q04DX003 (ip), vehicle: water): 101 % of control | T/C (dose: 6.25 mg/kg/injection, schedule: Q01DX005 (ip), vehicle: water): 97 % of control | T/C (dose: 6.25 mg/kg/injection, schedule: Q04DX003 (ip), vehicle: water): 108 % of control | T/C (dose: 12.5 mg/kg/injection, schedule: Q01DX005 (ip), vehicle: water): 100 % of control | T/C [9]: 110 % of control | T/C (dose: 25.0 mg/kg/injection, schedule: Q01DX005 (ip), vehicle: water): 98 % of control | T/C [10]: 98 % of control and 120 % of control

CCOC(=O)c1[nH]c(C)nc1/N=N/N(C)C
T/C (dose: 12.5 mg/kg/injection, schedule: Q01DX009 (ip), vehicle: saline): 114 % of control | T/C [1]: 103 % of control and 121 % of control | T/C [2]: 111 % of control | T/C [5]: 154 % of control and 180 % of control

NCC(O)CSc1ccccc1 (stereo unspecified)
T/C [1]: 95 % of control | T/C [2]: 100 % of control | T/C [3]: 106 % of control

OCCNCc1ccc2ccccc2n1
T/C [4]: 100 % of control | T/C [6]: 100 % of control

CN(C)Cc1cccc(N)c1
T/C (dose: 0.25 mg/kg/injection, schedule: Q01DX009 (ip), vehicle: water): 120 % of control | T/C (dose: 0.5 mg/kg/injection, schedule: Q01DX009 (ip), vehicle: water): 111 % of control | T/C (dose: 1.0 mg/kg/injection, schedule: Q01DX009 (ip), vehicle: water): 113 % of control | T/C (dose: 2.0 mg/kg/injection, schedule: Q01DX009 (ip), vehicle: water): 120 % of control | T/C (dose: 4.0 mg/kg/injection, schedule: Q01DX009 (ip), vehicle: water): 92 % of control | T/C [9]: 100 % of control | T/C [10]: 100 % of control | T/C [11]: 91 % of control | T/C [12]: 97 % of control

C=CCCc1cc(C(=O)N(c2ccccc2)C(C(=O)O)c2ccccc2)ccc1OC (stereo unspecified)
T/C (dose: 100.0 mg/kg/injection, schedule: Q04DX002 (ip), vehicle: saline with Tween-80): 101 % of control | T/C (dose: 200.0 mg/kg/injection, schedule: Q04DX002 (ip), vehicle: saline with Tween-80): 100 % of control | T/C (dose: 400.0 mg/kg/injection, schedule: Q04DX002 (ip), vehicle: saline with Tween-80): 108 % of control

O=C(Nc1ccc(F)cc1F)Oc1cccc2cccnc12
T/C [13]: 104 % of control | T/C [14]: 106 % of control | T/C [15]: 113 % of control | T/C (dose: 400.0 mg/kg/injection, schedule: Q01DX009 (ip), vehicle: Klucel (hydroxypropylcellulose) (HPC)): 104 % of control

N=C(N)c1ccc(C(=N)N)cc1
T/C (dose: 25.0 mg/kg/injection, schedule: Q01DX009 (ip), vehicle: water): 100 % of control | T/C (dose: 50.0 mg/kg/injection, schedule: Q01DX009 (ip), vehicle: water): 94 % of control | T/C [11]: 95 % of control | T/C (dose: 100.0 mg/kg/injection, schedule: Q01DX009 (ip), vehicle: water): 100 % of control | T/C [12]: 100 % of control | T/C (dose: 200.0 mg/kg/injection, schedule: Q04DX003 (ip), vehicle: water): 100 % of control

COC(=O)/C(C#N)=C(\C)CCC=C(C)C
T/C (dose: 25.0 mg/kg/injection, schedule: Q04DX003 (ip), vehicle: saline with Tween-80): 95 % of control | T/C (dose: 50.0 mg/kg/injection, schedule: Q04DX003 (ip), vehicle: saline with Tween-80): 105 % of control | T/C (dose: 100.0 mg/kg/injection, schedule: Q04DX003 (ip), vehicle: saline with Tween-80): 87 % of control

N=C1CCCC1C(=S)SC(CC(N)=O)C(=O)O (stereo unspecified)
T/C [16]: 108 % of control | T/C [7]: 112 % of control | T/C [8]: 112 % of control

C[C@]12CCCC[C@@H]1CC[C@@H]1[C@@H]2[C@@H](O)C[C@@]2(C)[C@H]1CC[C@]2(C)O
T/C [16]: 104 % of control | T/C [7]: 95 % of control | T/C [8]: 100 % of control

CC(C)C[CH2][Pb]([Cl])([CH2]CC(C)C)[CH2]CC(C)C
T/C (dose: 0.12 mg/kg/injection, schedule: Q01DX009 (ip), vehicle: Klucel (hydroxypropylcellulose) (HPC)): 104 % of control | T/C (dose: 0.25 mg/kg/injection, schedule: Q01DX009 (ip), vehicle: Klucel (hydroxypropylcellulose) (HPC)): 106 % of control | T/C (dose: 0.5 mg/kg/injection, schedule: Q01DX009 (ip), vehicle: Klucel (hydroxypropylcellulose) (HPC)): 109 % of control | T/C (dose: 1.0 mg/kg/injection, schedule: Q01DX009 (ip), vehicle: Klucel (hydroxypropylcellulose) (HPC)): 120 % of control

O=C(SCC(NSc1ccccc1[N+](=O)[O-])C(=O)O)c1ccccc1 (stereo unspecified)
T/C (dose: 12.0 mg/kg/injection, schedule: Q01DX009 (ip), vehicle: Klucel (hydroxypropylcellulose) (HPC)): 105 % of control | T/C (dose: 25.0 mg/kg/injection, schedule: Q01DX009 (ip), vehicle: Klucel (hydroxypropylcellulose) (HPC)): 115 % of control | T/C [13]: 115 % of control | T/C [14]: 110 % of control | T/C [15]: 105 % of control

CCCCN(S(=O)(=O)C(F)(F)F)S(=O)(=O)C(F)(F)F
T/C [3]: 91 % of control | T/C [5]: 91 % of control | T/C (dose: 400.0 mg/kg/injection, schedule: Q01DX009 (ip), vehicle: saline): 100 % of control
